Test results from patent US7897582B2, “Oligonucleotide compositions and methods for the modulation of the expression of B7 protein” (Isis Pharmaceuticals, Inc., priority 2003, dated 2011).
Strand notation (5' to 3'): a small letter for the sugar, then the base; units joined by * are phosphorothioate-linked, units joined directly phosphodiester-linked; [ ] holds rarer units or linkages, { } end groups; capitals alone tell only the bases. e = 2'-O-(2-methoxyethyl) (MOE); [5mC] = 5-methylcytosine; d = 2'-deoxy (DNA)

What was measured:
[1] = tested on: Human B7-1 mRNA; experiment: Human B7-1 mRNA expression in COS-7 cells, screened as in Example 4; assay type: cell-based
[2] = tested on: hB7-2 mRNA; experiment: Ribonuclease protection assay of hB7-2 mRNA in transfected COS-7 cells; assay type: cell-based, human
Procedure: For ribonuclease protection assays, cells were harvested 18 hours after completion of oligonucleotide treatment using a Totally RNA™ kit (Ambion, Austin, Tex.). The probes for the assay were generated from plasmids pcB7-2 (linearized by digestion with Bgl II) and pTRI-b-actin (Ambion Inc., Austin, Tex.). In vitro transcription of the linearized plasmid from the SP6 promoter was performed in the presence of α-^32P-UTP (800 Ci/mmole) yielding an antisense RNA complementary to the 3′ end of B7-2 (position 1044-1391). The probe was gel-purified after treatment with DNase I to remove DNA template. Ribonuclease protection assays were carried out using an RPA II™ kit (Ambion) according to the manufacturer's directions. Total RNA (5 μg) was hybridized overnight, at 42° C., with 10^5 cpm of the B7-2 probe or a control beta-actin probe. The hybridization reaction was then treated, at 37° C. for 30 minutes, with 0.4 units of RNase A and 2 units of RNase T1. Protected RNA was precipitated, resuspended in 10 μL of gel loading buffer and electrophoresed on a 6% acrylamide gel with 50% w/v urea at 20 W. The gel was then exposed and the lanes quantitated using a PhosphorImager (Molecular Dynamics, Sunnyvale, Calif.) essentially according to the manufacturer's instructions.
The oligonucleotides were screened as described in Example 4 except that the concentration of oligonucleotide was varied as shown in Table 13. Mismatch control oligonucleotides were included.

Substance	% mRNA EXPRESSION ([1]; human B7-1 mRNA, Table 7) [%]	% mRNA INHIBITION ([1]; human B7-1 mRNA, Table 7) [%]	% mRNA EXPRESSION ([2]; human B7-2 mRNA, Table 12) [%]	also measured
22340 (antisense eA*eG*eA*eA*eG*dA*dG*dG*dT*dT*dA*d[5mC]*dA*dT*dT*eA*eA*eG*e[5mC]*eA) [compound 22340]	71	29	–	–
13805 (antisense C^{S}C^{S}T^{S}G^{S}C^{S}C^{S}T^{S}C^{S}C^{S}G^{S}T^{S}G^{S}T^{S}G^{S}T^{S}G^{S}G^{S}C^{S}C^{S}C; as printed in the source, key not given here) [compound 13805]	46	54	–	–
22328 (antisense eG*eG*eA*eA*eG*dT*d[5mC]*dA*dG*d[5mC]*dT*dT*dT*dG*dA*e[5mC]*eT*eG*eA*eT) [compound 22328]	64	36	–	–
22330 (antisense e[5mC]*e[5mC]*eA*eA*e[5mC]*d[5mC]*dA*dG*dG*dA*dG*dA*dG*dG*dT*eG*eA*eG*eG*e[5mC]) [compound 22330]	54	46	–	–
22333 (antisense eA*eA*eG*eG*eT*dA*dA*dT*dG*dG*d[5mC]*d[5mC]*d[5mC]*dA*dG*eG*eA*eT*eG*eG) [compound 22333]	73	27	–	–
22318 (eG*eT*eG*eA*eA*dA*dG*d[5mC]*d[5mC]*dA*dA*d[5mC]*dA*dA*dT*eT*eT*eG*eG*eA; antisense) [compound 22318]	63	37	–	–
22319 (e[5mC]*eA*eT*eG*eG*d[5mC]*dT*dT*d[5mC]*dA*dG*dA*dT*dG*d[5mC]*eT*eT*eA*eG*eG; antisense) [compound 22319]	68	32	–	–
24734 (antisense e[5mC]*eG*eT*eT*eG*d[5mC]*dT*dT*dG*dT*dG*d[5mC]*d[5mC]*dG*dA*e[5mC]*eA*eG*eT*eG) [compound 24734]	–	–	–	% mRNA EXPRESSION ([1]; 10 nM, COS-7, Table 8): 94%; % mRNA INHIBITION ([1]; 10 nM, COS-7, Table 8): 6%; % mRNA EXPRESSION ([1]; 30 nM, COS-7, Table 8): 96%; % mRNA INHIBITION ([1]; 30 nM, COS-7, Table 8): 4%; % mRNA EXPRESSION ([1]; 100 nM, COS-7, Table 8): 94%; % mRNA INHIBITION ([1]; 100 nM, COS-7, Table 8): 6%; % mRNA EXPRESSION ([1]; 300 nM, COS-7, Table 8): 84%; % mRNA INHIBITION ([1]; 300 nM, COS-7, Table 8): 16%
22329 (antisense e[5mC]*e[5mC]*eT*e[5mC]*e[5mC]*dA*dG*dA*dG*dG*dT*dT*dG*dA*dG*e[5mC]*eA*eA*eA*eT) [compound 22329]	59	41	–	–
22341 (antisense eA*eG*eA*eT*eA*dA*dT*dG*dA*dA*dT*dT*dG*dG*d[5mC]*eT*eG*eA*e[5mC]*eA) [compound 22341]	59	41	–	–
22315 (eT*eT*eT*eA*eG*dT*dT*dT*d[5mC]*dA*d[5mC]*dA*dG*d[5mC]*dT*eT*eG*e[5mC]*eT*eG) [compound 22315]	49	–	–	–
22339 (antisense eG*eT*eA*eA*eA*dA*d[5mC]*dA*dG*d[5mC]*dT*dT*dA*dA*dA*eT*eT*eT*eG*eT) [compound 22339]	69	31	–	–
22309 (eT*eT*eG*eG*e[5mC]*dA*dT*dA*d[5mC]*dG*dG*dA*dG*d[5mC]*dA*eG*eA*eG*e[5mC]*eT; antisense) [compound 22309]	–	–	42	–
22331 (antisense eG*eA*eA*eG*e[5mC]*dT*dG*dT*dG*dG*dT*dT*dG*dG*dT*eT*eG*eT*e[5mC]*eA) [compound 22331]	62	38	–	–
24737 (antisense eA*eG*eT*eA*eT*dG*dT*dT*dT*d[5mC]*dT*d[5mC]*dA*d[5mC]*dT*e[5mC]*e[5mC]*eG*eA*eT) [compound 24737]	–	–	–	% mRNA INHIBITION ([2]; COS-7 cells, B7-2 mRNA, oligonucleotide dose 10 nM): 15%; % mRNA EXPRESSION ([2]; COS-7 cells, B7-2 mRNA, oligonucleotide dose 10 nM, basal = 100%): 85%; % mRNA INHIBITION ([2]; COS-7 cells, B7-2 mRNA, oligonucleotide dose 30 nM): 5%; % mRNA EXPRESSION ([2]; COS-7 cells, B7-2 mRNA, oligonucleotide dose 30 nM, basal = 100%): 95%; % mRNA INHIBITION ([2]; COS-7 cells, B7-2 mRNA, oligonucleotide dose 100 nM): 13%; % mRNA EXPRESSION ([2]; COS-7 cells, B7-2 mRNA, oligonucleotide dose 100 nM, basal = 100%): 87%; % mRNA INHIBITION ([2]; COS-7 cells, B7-2 mRNA, oligonucleotide dose 300 nM): 1%; % mRNA EXPRESSION ([2]; COS-7 cells, B7-2 mRNA, oligonucleotide dose 300 nM, basal = 100%): 99%
22310 (eT*eG*eT*eG*e[5mC]*dT*d[5mC]*dT*dG*dA*dA*dG*dT*dG*dA*eA*eA*eA*eG*eA; antisense) [compound 22310]	–	–	41	–

Substance	% mRNA EXPRESSION ([1]; human B7-1 mRNA, Table 7) [%]	% mRNA INHIBITION ([1]; human B7-1 mRNA, Table 7) [%]	% mRNA EXPRESSION ([2]; human B7-2 mRNA, Table 12) [%]	also measured
22299 (eG*eT*eG*eT*eA*dT*dA*dG*dA*dT*dG*dA*dG*d[5mC]*dA*eG*eG*eT*e[5mC]*eA; antisense) [compound 22299]	–	–	46	–
22297 (eT*eG*eT*eG*eA*dT*dG*dG*dA*dT*dG*dA*dT*dA*d[5mC]*eA*eT*eT*eG*eA; antisense) [compound 22297]	–	–	54	% mRNA INHIBITION ([2]; human B7-2 mRNA, Table 12): 46%
22314 (eT*eG*eA*eA*eG*dA*dA*dA*dA*dA*dT*dT*d[5mC]*d[5mC]*dA*e[5mC]*eT*eT*eT*eT; antisense) [compound 22314]	69	31	–	–
22304 (eT*e[5mC]*e[5mC]*e[5mC]*eT*d[5mC]*dT*d[5mC]*d[5mC]*dA*dT*dT*dG*dT*dG*eT*eT*eG*eG*eT; antisense) [compound 22304]	–	–	41	–
24733 (antisense eG*e[5mC]*eG*eT*e[5mC]*dA*dT*d[5mC]*dA*dT*d[5mC]*d[5mC]*dG*d[5mC]*dA*e[5mC]*e[5mC]*eA*eT*e[5mC]) [compound 24733]	–	–	–	% mRNA EXPRESSION ([1]; 10 nM, COS-7, Table 8): 90%; % mRNA INHIBITION ([1]; 10 nM, COS-7, Table 8): 10%; % mRNA EXPRESSION ([1]; 30 nM, COS-7, Table 8): 91%; % mRNA INHIBITION ([1]; 30 nM, COS-7, Table 8): 9%; % mRNA EXPRESSION ([1]; 100 nM, COS-7, Table 8): 90%; % mRNA INHIBITION ([1]; 100 nM, COS-7, Table 8): 10%; % mRNA EXPRESSION ([1]; 300 nM, COS-7, Table 8): 80%; % mRNA INHIBITION ([1]; 300 nM, COS-7, Table 8): 20%
24735 (antisense eG*e[5mC]*eT*e[5mC]*eA*d[5mC]*dG*dA*dA*dG*dA*dA*d[5mC]*dA*d[5mC]*e[5mC]*eT*eT*e[5mC]*e[5mC]) [compound 24735]	–	–	–	% mRNA EXPRESSION ([1]; 10 nM, COS-7, Table 8): 100%; % mRNA EXPRESSION ([1]; 30 nM, COS-7, Table 8): 95%; % mRNA INHIBITION ([1]; 30 nM, COS-7, Table 8): 5%; % mRNA EXPRESSION ([1]; 100 nM, COS-7, Table 8): 81%; % mRNA INHIBITION ([1]; 100 nM, COS-7, Table 8): 19%; % mRNA EXPRESSION ([1]; 300 nM, COS-7, Table 8): 75%; % mRNA INHIBITION ([1]; 300 nM, COS-7, Table 8): 25%
22313 (eA*eG*eA*e[5mC]*eT*d[5mC]*d[5mC]*dA*d[5mC]*dT*dT*d[5mC]*dT*dG*dA*eG*eA*eT*eG*eT; antisense) [compound 22313]	75	25	–	–
22305 (e[5mC]*eA*eT*e[5mC]*eA*dG*dA*dT*d[5mC]*dT*dT*dT*d[5mC]*dA*dG*eG*eT*eA*eT*eA; antisense) [compound 22305]	–	–	57	% mRNA INHIBITION ([2]; human B7-2 mRNA, Table 12): 43%
22321 (eG*eA*e[5mC]*e[5mC]*eA*dG*d[5mC]*d[5mC]*dA*dG*d[5mC]*dA*d[5mC]*d[5mC]*dA*eA*eG*eA*eG*e[5mC]; antisense) [compound 22321]	57	43	–	–
22285 (e[5mC]*eA*eG*eA*eA*dG*d[5mC]*dA*dA*dG*dG*dT*dG*dG*dT*eA*eA*eG*eA*eA; antisense) [compound 22285]	–	–	74	% mRNA INHIBITION ([2]; human B7-2 mRNA, Table 12): 26%
22332 (antisense eT*eT*eG*eA*eA*dG*dG*dT*d[5mC]*dT*dG*dA*dT*dT*d[5mC]*eA*e[5mC]*eT*e[5mC]*eT) [compound 22332]	67	33	–	–
22286 (eG*e[5mC]*e[5mC]*eT*eG*dT*d[5mC]*d[5mC]*dA*d[5mC]*dT*dG*dT*dA*dG*e[5mC]*eT*e[5mC]*e[5mC]*eA; antisense) [compound 22286]	–	–	39	–
22326 (antisense eG*eT*eA*eT*eG*dT*dG*d[5mC]*d[5mC]*d[5mC]*dT*d[5mC]*dG*dT*d[5mC]*eA*eG*eA*eT*eG) [compound 22326]	62	38	–	–
22336 (antisense eA*eG*e[5mC]*e[5mC]*e[5mC]*d[5mC]*dT*dT*dG*d[5mC]*dT*dT*d[5mC]*dT*dG*e[5mC]*eG*eG*eA*e[5mC]) [compound 22336]	55	45	–	–
22311 (eG*eG*e[5mC]*eT*eT*dG*dG*d[5mC]*d[5mC]*d[5mC]*dA*dT*dA*dA*dG*eT*eG*eT*eG*e[5mC]; antisense) [compound 22311]	–	–	49	–
22303 (eA*eG*eA*eG*eT*dT*dG*d[5mC]*dG*dA*dG*dG*d[5mC]*d[5mC]*dG*e[5mC]*eT*eT*e[5mC]*eT; antisense) [compound 22303]	–	–	46	–
